Test: Maximum tolerable dose study
Assay type: in vivo
Settings: mice, 3 per group
Description: Survival of mice after administration of SMSMs after 10 or 11 days was assessed.
Tolerance of the drug treatments was determined by measuring the weight of the mice during the period of drug administration. Body weight was measured prior to tumor inoculation and prior to the treatment administration and then daily. The changes in the final weight of the mice for the SMSM treatments were determined.

Measured: Outcome

CN(c1ccc(-c2ccc(-c3cn[nH]c3)cc2O)nn1)[C@H]1C[C@]2(C)CC[C@](C)(C1)N2 [compound 151, 2-(6-(((1R,3s,5S)-1,5-dimethyl-8-azabicyclo[3.2.1]octan-3-yl)(methyl)amino)pyridazin-3-yl)-5-(1H-pyrazol-4-yl)phenol]
All survived: IP 1 mg/kg QDx11 | PO 10 mg/kg BIDx11 | PO 10 mg/kg QDx11

From patent US11008572B2, “Methods and compositions for modulating splicing” (SKYHAWK THERAPEUTICS, INC., priority 2017, dated 2021)
